According to patent publication US4307094A, “Triazolopyridazine derivatives” (Hoffmann-La Roche Inc., priority 1979, dated 1981):

Target: T1, angiotensin converting enzyme (Oryctolagus cuniculus, UniProt P12822)
T1 sequence (P12822 34-1310): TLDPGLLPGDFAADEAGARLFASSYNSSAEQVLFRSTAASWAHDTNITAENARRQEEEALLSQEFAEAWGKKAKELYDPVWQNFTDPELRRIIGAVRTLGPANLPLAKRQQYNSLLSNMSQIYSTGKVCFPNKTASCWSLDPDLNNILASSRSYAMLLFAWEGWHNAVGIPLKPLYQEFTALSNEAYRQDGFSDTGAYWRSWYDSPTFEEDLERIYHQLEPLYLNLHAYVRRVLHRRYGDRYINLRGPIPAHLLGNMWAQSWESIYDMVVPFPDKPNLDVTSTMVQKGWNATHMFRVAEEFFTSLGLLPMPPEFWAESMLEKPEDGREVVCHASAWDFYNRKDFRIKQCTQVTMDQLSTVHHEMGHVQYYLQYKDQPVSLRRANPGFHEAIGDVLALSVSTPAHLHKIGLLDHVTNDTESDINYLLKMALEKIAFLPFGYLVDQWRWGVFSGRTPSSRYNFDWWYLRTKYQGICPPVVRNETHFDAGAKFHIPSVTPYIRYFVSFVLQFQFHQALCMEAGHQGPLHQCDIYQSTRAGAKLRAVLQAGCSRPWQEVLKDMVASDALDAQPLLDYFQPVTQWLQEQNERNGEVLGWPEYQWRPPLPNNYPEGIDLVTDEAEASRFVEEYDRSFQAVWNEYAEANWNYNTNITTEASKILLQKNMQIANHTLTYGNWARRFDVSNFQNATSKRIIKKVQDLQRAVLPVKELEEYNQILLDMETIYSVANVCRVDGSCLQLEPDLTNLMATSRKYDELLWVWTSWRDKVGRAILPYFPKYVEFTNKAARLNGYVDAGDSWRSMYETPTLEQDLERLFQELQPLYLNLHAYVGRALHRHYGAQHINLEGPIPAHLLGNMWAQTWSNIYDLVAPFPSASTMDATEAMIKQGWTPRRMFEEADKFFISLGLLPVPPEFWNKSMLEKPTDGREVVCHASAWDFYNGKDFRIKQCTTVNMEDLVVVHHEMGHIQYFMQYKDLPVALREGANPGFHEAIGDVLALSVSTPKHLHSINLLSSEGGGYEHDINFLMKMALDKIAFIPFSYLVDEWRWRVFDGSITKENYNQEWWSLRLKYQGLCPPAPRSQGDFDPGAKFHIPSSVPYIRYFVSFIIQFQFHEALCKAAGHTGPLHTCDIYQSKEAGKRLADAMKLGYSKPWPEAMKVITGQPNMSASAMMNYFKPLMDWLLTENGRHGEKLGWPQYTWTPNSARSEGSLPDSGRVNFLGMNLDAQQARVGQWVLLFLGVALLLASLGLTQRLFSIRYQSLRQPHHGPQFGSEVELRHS
Test: inhibition of angiotensin converting enzyme in vitro (cleavage of hippuryl-histidyl-leucine)
Format: biochemical
Settings: substrate hippuryl-histidyl-leucine 2 mM, potassium phosphate buffer pH 8.3 (100 mM), NaCl 300 mM, 25 minutes, 37° C.
Experimental: The activity of the present triazolopyridazine derivatives in inhibiting angiotensin converting enzyme in vitro can be determined by the following test.
The method used is based on the method of Cushman and Cheung (Biochem. Pharmacol., 20, 1637-1648) incorporating the modifications introduced by Hayakari et al. (Anal. Biochem., 84, 361-369). The substrate (hippuryl-histidyl-leucine, 2 mM) is incubated with angiotensin converting enzyme in the presence or absence of various concentrations of test substance in potassium phosphate buffer (pH 8.3; 100 mM) containing sodium chloride (300 mM) for 25 minutes at 37° C. (total […] 500 μl). The reaction is terminated by the addition of 3 ml of potassium phosphate buffer (pH 8.3; 200 mM) at 0° C. 2,4,6-trichloro-s-triazine (3%) in 1.5 ml of dioxan is added, and the mixture is agitated until the yellow chromophore has developed fully. The samples are then centrifuged to remove any precipitate which has formed. The yellow chromophore formed by the reaction of the 2,4,6-trichloro-s-triazine with free hippuric acid is measured spectrophotometrically at 382 nm. IC50 values are defined as the concentration of test substance which reduces by 50% the cleavage of hippuryl-histidyl-leucine by angiotensin converting enzyme under the aforementioned conditions.

IC50 | Compound
18 µM | O=C(O)CCn1c(=O)n2n(c1=O)C(C(=O)O)C=CC2 (stereo not shown) [Compound A, 5-carboxy-2,3,5,8-tetrahydro-1,3-dioxo-1H-1,2,4-triazolo[1,2-a]pyridazine-2-propionic acid]
65 µM | NC(=O)CCn1c(=O)n2n(c1=O)C(C(=O)O)C=CC2 (stereo not shown) [Compound B, 2-(2-carbamoylethyl)-2,3,5,8-tetrahydro-1,3-dioxo-1H-1,2,4-triazolo[1,2-a]-pyridazine-5-carboxylic acid]
3.3 µM | O=C(CCn1c(=O)n2n(c1=O)C(C(=O)O)C=CC2)NO (stereo not shown) [Compound C, 2-[2-(N-hydroxycarbamoyl)ethyl]-2,3,5,8-tetrahydro-1,3-dioxo-1H-1,2,4-triazolo[1,2-a]pyridazine-5-carboxylic acid]
0.48 µM | O=C(O)C1C=CCn2c(=O)n(CCS)c(=O)n21 (stereo not shown) [Compound D, 2,3,5,8-tetrahydro-2-(2-mercaptoethyl)-1,3-dioxo-1H-1,2,4-triazolo[1,2-a]pyridazine-5-carboxylic acid]
